Results on four compounds are retold here after patent US10051863B2, “Methods for apple scab control” (Valent U.S.A., Corporation, priority 2015, dated 2018).

Data set [1] concerns Alternaria leaf spot. The data set can be described thus: Example 1: bark spray on pear trees, Alternaria leaf spot control. Format: in vivo. The following applies: bark spray at mid-petal fall, at this rate and time of development. The source says: (§1) Applicant conducted the following study to determine the effect of a 3-(difluoromethyl)-1-methyl-N-[(3R)-1,1,3-trimethyl-2,3-dihydroinden-4-yl]pyrazole-4-carboxamide bark spray application on common fungal infections in apple and pear trees. Applications were made in late February with a CO2 charged, single-tip hand sprayer. Treatments were applied as a spray to the lower 3 to 4 feet of the tree trunks all the way around the tree. The tree trunks were sprayed until they were wet. If the treatments included a surfactant (see tables), then the treatments included a surfactant at a rate of 3 fl oz/gallon of the spray mix. The apple trees were at bed swell stage. The apple tree trunks were about 5 to 8 inches in diameter. The pear trees were at mid-petal fall with some green leaves emerging. The pear tree trunks were about 10 to 12 inches in diameter. The following rates in grams per active/cm diameter tree trunk are based on an average trunk diameter. A large amount of apple scab naturally developed during this growing season in this location. The effects of the treatments on apple leaf phytotoxicity, apple leaf apple scab incidence, apple leaf scab severity, and apple leaf percent control were observed 113 and 169 days after treatment (“DAT”). The results of this study are below in Tables 1 and 2.

Data set [2] is described as follows: Water solubility. It is filed as physicochemical.
The subject of data set [3] is Fabraea leaf spot. The data set can be described thus: Example 1: bark spray on pear trees, Fabraea leaf spot control. Format: in vivo. The following applies: bark spray at mid-petal fall, at this rate and time of development.
From the text: as §1

Data set [4] deals with apple trees. As to the kind of experiment: Example 2: phytotoxicity on apple trees. Format: in vivo. The source says:
(§2) In this study, the 3-(difluoromethyl)-1-methyl-N-[(3R)-1,1,3-trimethyl-2,3-dihydroinden-4-yl]pyrazole-4-carboxamide treatment was applied at the time of bud swell in mid March on apple tree trunks (treatment 5). The result of this treatment was compared to metconazole treatments applied when the apple trees were dormant (treatments 2 and 3), at the time of bud swell (treatment 4), and a foliar spray applied after petal fall (treatment 6). The control treatment (treatment 1) was applied during bud swell, as well. Four trees were subjected to each treatment.

The test system of data set [5] is apple scab caused by Venturia inaequalis. As to the kind of experiment: Example 1: bark spray on apple trees, apple leaf scab incidence, severity and % control. It is filed as in vivo. Details: Apple leaf scab severity: scale not given here; Apple Leaf scab incidence: unit not given here. The following applies: for Apple Leaf scab incidence / Apple leaf % control / Apple leaf scab severity: bark spray.
From the text: as §1

Data set [6] deals with apple trees. The data set can be described thus: Example 1: apple leaf phytotoxicity after bark spray. Format: in vivo. Details: scale not given here.
From the text: as §1

In data set [7] the test system is apple scab caused by Venturia inaequalis. As to the kind of experiment: Example 2: apple tree trunk treatment, leaf and fruit pest incidence and severity. It is filed as in vivo.
From the text: as §2

For data set [8], the system named is apple scab. The settings on record: background statement, cited from earlier work.
[9] abbreviates: treatment 5, applied at the time of bud swell in mid March on apple tree trunks, 0.003 grams active/cm trunk diameter + 2.3% V/V surfactant.
The mark [10] stands for this setting: 113 DAT, 0.003 grams active/cm trunk diameter + 2.3% V/V surfactant.
Where [11] appears, read: 113 DAT, 0.03 grams active/cm trunk diameter + 2.3% V/V surfactant.
The mark [12] stands for this setting: 169 DAT, 0.003 grams active/cm trunk diameter + 2.3% V/V surfactant.
The mark [13] stands for this setting: 169 DAT, 0.03 grams active/cm trunk diameter + 2.3% V/V surfactant.
Where [14] appears, read: first fruit pest, treatment 5, applied at the time of bud swell in mid March on apple tree trunks, 0.003 grams active/cm trunk diameter + 2.3% V/V surfactant.
The mark [15] stands for this setting: treatment 2, applied when apple trees dormant, 1.72 grams active/cm trunk diameter + 2.3% V/V surfactant.
[16] abbreviates: treatment 3, applied when apple trees dormant, 1.72 grams active/cm trunk diameter + 2.3% V/V surfactant.
[17] abbreviates: treatment 4, applied at the time of bud swell, 1.72 grams active/cm trunk diameter + 2.3% V/V surfactant.
The mark [18] stands for this setting: treatment 6, foliar spray applied after petal fall, 4 oz pr/A, surfactant not given.
[19] abbreviates: 113 DAT, 0.86 grams active/cm trunk diameter + 2.3% V/V surfactant.
Setting [20] is: 113 DAT, 1.72 grams active/cm trunk diameter + 2.3% V/V surfactant.
The mark [21] stands for this setting: 113 DAT, 3.44 grams active/cm trunk diameter + 2.3% V/V surfactant.
The mark [22] stands for this setting: 169 DAT, 0.86 grams active/cm trunk diameter + 2.3% V/V surfactant.
Setting [23] is: 169 DAT, 1.7 grams active/cm trunk diameter + 2.3% V/V surfactant.
Setting [24] is: 169 DAT, 3.4 grams active/cm trunk diameter + 2.3% V/V surfactant.
The mark [25] stands for this setting: first fruit pest, treatment 2, applied when apple trees dormant, 1.72 grams active/cm trunk diameter + 2.3% V/V surfactant.
Where [26] appears, read: first fruit pest, treatment 3, applied when apple trees dormant, 1.72 grams active/cm trunk diameter + 2.3% V/V surfactant.
[27] abbreviates: first fruit pest, treatment 4, applied at the time of bud swell, 1.72 grams active/cm trunk diameter + 2.3% V/V surfactant.
Setting [28] is: first fruit pest, treatment 6, foliar spray applied after petal fall, 4 oz pr/A, surfactant not given.
Setting [29] is: 113 DAT, 1.16 grams active/cm trunk diameter + 2.3% V/V surfactant.
Where [30] appears, read: 169 DAT, 1.16 grams active/cm trunk diameter + 2.3% V/V surfactant.

For the compound `C[C@@H]1CC(C)(C)c2cccc(NC(=O)c3cn(C)nc3C(F)F)c21` [3-(Difluoromethyl)-1-methyl-N-[(3R)-1,1,3-trimethyl-2,3-dihydroinden-4-yl]pyrazole-4-carboxamide], the “control of Alternaria leaf spot” value in data set [1] is on record as “failed to provide adequate control”. Further, the water solubility entry in data set [2] is reported as “low water solubility”. Also, in data set [3], the “control of Fabraea leaf spot” value was “failed to provide adequate control”. The Phytotoxicity in data set [4] (setting [9]) was determined as 0. Also, the “Apple Leaf scab incidence” value is 20 in data set [5] (setting [10]), 23 in data set [5] (setting [11]), 13.75 in data set [5] (setting [12]) and 13.75 in data set [5] (setting [13]). In addition, the “Apple leaf % control” value amounted to 88.3% in data set [5] (setting [10]), 80% in data set [5] (setting [11]), 43.8% in data set [5] (setting [12]) and 46.3% in data set [5] (setting [13]). Further, the “Apple leaf scab severity” value in data set [5] (setting [10]) was determined as 13.8; in data set [5] (setting [11]) it was 16.3; in data set [5] (setting [12]) it was 7; in data set [5] (setting [13]), 4.5. For the same compound, the “activity against apple scab caused by Venturia inaequalis” value in data set [5] (combined with a surfactant and applied as a bark spray, as compared to metconazole and propiconazole) is listed as “excellent activity”. Further, the “Apple Leaf Phytotoxicity” value in data set [6] (setting [10]), in data set [6] (setting [11]), in data set [6] (setting [12]) and in data set [6] (setting [13]) was 0 in each case. Moreover, the Fruit pest incidence in data set [7] (setting [14]) came to 10.25; in data set [7] (setting [9]), 0.33. Further, the Fruit pest severity in data set [7] (setting [14]) was determined as 0.638; in data set [7] (setting [9]) it was 0.183. Also, the Leaf pest incidence in data set [7] (setting [9]) is given as 0.25. The Leaf pest severity in data set [7] (setting [9]) amounted to 0.3.

Turning to `O=C1C2CC=CCC2C(=O)N1SC(Cl)(Cl)Cl` (centres unmarked) [Captan, N-trichtoromethylthiocyclohexene-1,2-dicarboximide], the systemic control activity result in data set [8] is listed as “no systemic control activity”. The “effectiveness against apple scab” value in data set [8] (contact fungicide) is on record as “effective against apple scab”.

For `CC1(C)CCC(Cc2ccc(Cl)cc2)C1(O)Cn1cncn1` (centres unmarked) [Metconazole + Surfactant, metconazole], the Phytotoxicity in data set [4] (setting [15]), in data set [4] (setting [16]), in data set [4] (setting [17]) and in data set [4] (setting [18]) was 0 throughout. The “Apple Leaf scab incidence” value in data set [5] (setting [19]) is listed as 12.5; in data set [5] (setting [20]) it was 18; in data set [5] (setting [21]), 11.25; in data set [5] (setting [22]), 18.88; in data set [5] (setting [23]), 15.5; in data set [5] (setting [24]), 7.25. Further, the “Apple leaf % control” value in data set [5] (setting [19]) is 80%; in data set [5] (setting [20]), 68.8%; in data set [5] (setting [21]), 80%; in data set [5] (setting [22]) it was 31.3%; in data set [5] (setting [23]), 27.5%; in data set [5] (setting [24]) it was 62.5%. Moreover, the “Apple leaf scab severity” value in data set [5] (setting [19]) came out at 10; in data set [5] (setting [20]), 18.3; in data set [5] (setting [21]) it was 13.3; in data set [5] (setting [22]), 4.25; in data set [5] (setting [23]), 4.75; in data set [5] (setting [24]), 2.75. In addition, the “Apple Leaf Phytotoxicity” value in data set [6] (setting [19]), in data set [6] (setting [20]), in data set [6] (setting [21]), in data set [6] (setting [22]), in data set [6] (setting [23]) and in data set [6] (setting [24]) was 0 each time. Moreover, the Fruit pest incidence in data set [7] (setting [25]) worked out at 33.75; in data set [7] (setting [26]) it was 6.67; in data set [7] (setting [27]) it was 14.00; in data set [7] (setting [28]), 2.75; in data set [7] (setting [15]), 45.0; in data set [7] (setting [16]), 10.0. For the same compound, the Fruit pest incidence in data set [7] (setting [17]) amounted to 18.67; in data set [7] (setting [18]) it was 3.67. Moreover, the Fruit pest severity stood at 2.25 in data set [7] (setting [25]); 0.333 in data set [7] (setting [26]); 1.125 in data set [7] (setting [27]); 0.263 in data set [7] (setting [28]); 3.0 in data set [7] (setting [15]); 0.5 in data set [7] (setting [16]). In addition, the Fruit pest severity in data set [7] (setting [17]) is 1.5; in data set [7] (setting [18]), 0.350. Moreover, the Leaf pest incidence in data set [7] (setting [15]) is 1.875; in data set [7] (setting [16]), 1.000; in data set [7] (setting [17]), 0.140; in data set [7] (setting [18]) it was 0.125. In addition, the Leaf pest severity is listed as 5.0 in data set [7] (setting [15]), 1.7 in data set [7] (setting [16]), 2.0 in data set [7] (setting [17]) and 0.8 in data set [7] (setting [18]).

With `CCCC1COC(Cn2cncn2)(c2ccc(Cl)cc2Cl)O1` (centres unmarked) [Propiconazole + Surfactant, propiconazole], in data set [5] (setting [29]), the “Apple Leaf scab incidence” value was found to be 18.78, the “Apple leaf % control” value is 68.3% and the “Apple leaf scab severity” value is given as 8.3. Besides, in data set [5] (setting [30]), the “Apple Leaf scab incidence” value is on record as 13.38, the “Apple leaf % control” value turned out to be 36.3% and the “Apple leaf scab severity” value is given as 4.63. Moreover, in data set [6] (setting [29]), the “Apple Leaf Phytotoxicity” value is 0. In addition, in data set [6] (setting [30]), the “Apple Leaf Phytotoxicity” value is on record as 0.
